This note sets out measurements from patent US4168206A, “Impregnated disk method for testing antifungal susceptibility” (Philadelphia College of Osteopathic Medicine, priority 1977, dated 1979).

In assay [1] the test system is Candida albicans. Briefly: Susceptibility to combination of antifungal agents on disks (Example 2). The format is cell-based. Conditions: Candida albicans isolate; in combination with amphotericin B. The source says:
(§1) The method of the present invention also may be used to test combinations of antifungal agents. In this method, more than one antifungal agent of known concentration is impregnated in each test disk.
(§2) Each disk is impregnated with a particular known concentration of at least one particular antifungal agent, except for the control disks. When the susceptibility of a fungus to combinations of antifungal agents is being tested, more than one antifungal agent is impregnated in each test disk.
(§3) The susceptibility of two other isolates to combinations of antifungal agents were tested by combining more than one antifungal agent on each test disk. A series of test disks were prepared containing various combinations of antifungal agents in various concentrations and were used in the method of the present invention. The results of this procedure are summarized in the following specific, non-limiting examples:
This is a significant reduction in amphotericin B.

Assay [2] concerns Candida tropicalis. Briefly: Susceptibility to combination of antifungal agents on disks (Example 3). It counts as cell-based. The note with it: in combination with amphotericin B 0.05 μg/ml.
Source text: as §1, §2, §3
An isolate of Candida tropicalis was initially tested for amphotericin B susceptibility of 0.5 μg/ml. When a combination of amphotericin B and tetracycline were combined on the disks used in the testing procedure according to the present invention, effective inhibition of the isolate occurred using 0.05 μg/ml of amphotericin B and 0.2 μg/ml of tetracycline.

As for `CN(C)C1C(=O)C(C(N)=O)=C(O)C2(O)C(=O)C3=C(O)c4c(O)cccc4C(C)(O)C3CC12` (centres unmarked) [tetracycline], the tetracycline susceptibility in assay [1] came to 0.1 µg/mL. Also, the “effective inhibition of the isolate, concentration of tetracycline” value in assay [2] was 0.2 µg/mL.
